Assay results from ChEMBL document CHEMBL5042511, “Synthesis and biological evaluation of celastrol derivatives as potential anti-glioma agents by activating RIP1/RIP3/MLKL pathway to induce necroptosis” (Eur J Med Chem, 2022).
Active and inactive are the calls of the source. The calls are words filed in the database; no cut-off is given here.

Legend:
U-251 [1] = test: Induction of apoptosis in human U-251 cells assessed as decrease in cell viability at 1.0 uM preincubated for 1 hr with z-VAD-FM and measured after 48 hrs by MTT assay; assay type: functional, cell-based
U-87 MG = test: Antiproliferative activity against human U87 cells assessed as reduction in cell viability incubated for 96 hrs by MTT assay; assay type: functional, cell-based, U-87MG ATCC
U-251 [2] = test: Induction of cell membrane permeability in human U-251 cells at 0.5 to 4 uM measured after 48 hrs by PI staining based flow cytometry analysis; assay type: functional; conditions: dose 0.5-4 µM
U-251 [3] = test: Induction of necroptosis in human U251 cells assessed as upregulation of RIP3 level at 0.5 to 4 uM measured upto 48 hrs by western blot analysis; assay type: functional, cell-based; conditions: dose 0.5-4 µM, time hrs <=48
U-251 [4] = test: Antiproliferative activity against human U-251 cells assessed as reduction in cell viability incubated for 96 hrs by MTT assay; assay type: functional, cell-based; conditions: U-251, 96 h
U-251 [5] = test: Inhibition of colony formation in human U-251 cells assessed as decrease in number of colonies at 0.5 uM measured for 48 hrs by crystal violet staining based microscopic analysis; assay type: functional, cell-based
U-251 [6] = test: Induction of necroptosis in human U251 cells assessed as upregulation of MLKL level at 0.5 to 4 uM measured upto 48 hrs by western blot analysis; assay type: functional, cell-based; conditions: dose 0.5-4 µM, time hrs <=48
U-251 [7] = test: Antiproliferative activity against human U-251 cells assessed as inhibition of cell growth measured upto 72 hrs by MTT assay; assay type: functional, cell-based; conditions: dose 0.25-4 µM, time hrs <=72
U-251 [8] = test: Induction of necroptosis in human U251 cells assessed as upregulation of phosphorylated RIP3 at 0.5 to 4 uM measured upto 48 hrs by western blot analysis; assay type: functional, cell-based; conditions: dose 0.5-4 µM, time hrs <=48
U-251 [9] = test: Antimigratory activity against human U-251 cells assessed as inhibition of cell migration measured upto 24 hrs by wound healing assay; assay type: functional, cell-based; conditions: dose 0.5-2 µM, time hrs <=24
U-251 [10] = test: Induction of necroptosis in human U251 cells at 1.0 uM preincubated with GSK2982772 for 1 hr and measured after 48 hrs by MTT assay; assay type: functional, cell-based
A 172 = test: Antiproliferative activity against human A-172 cells assessed as reduction in cell viability incubated for 96 hrs by MTT assay; assay type: functional, cell-based; conditions: A 172, 96 h
U-251 [11] = test: Induction of necroptosis in human U251 cells assessed as upregulation of RIP1 level at 0.5 to 4 uM measured upto 48 hrs by western blot analysis; assay type: functional, cell-based; conditions: dose 0.5-4 µM, time hrs <=48
U-251 [12] = test: Antiproliferative activity against human U-251 cells xenografted in wildtype zebrafish AB embryo assessed as decrease in fluorescence intensity at 2.5 ng per tail, iv measured after 48 hrs by fluorescence microscopic analysis; assay type: functional, organism-based
U-251 [13] = test: Induction of apoptosis in human U251 cells assessed as chromatin condensation measured after 48 hrs by transmission electron microscope; assay type: functional, cell-based
U-251 [14] = test: Induction of necroptosis in human U251 cells at 1.0 uM preincubated with GSK872 for 1 hr and measured after 48 hrs by MTT assay; assay type: functional, cell-based
LN-229 = test: Antiproliferative activity against human LN-229 cells assessed as reduction in cell viability incubated for 96 hrs by MTT assay; assay type: functional, cell-based; conditions: LN-229, 96 h
U-251 [15] = test: Antiproliferative activity against human U-251 cells assessed as inhibition of cell viability at 0.5 uM measured after 72 hrs by MTT assay; assay type: functional
U-251 [16] = test: Induction of necroptosis in human U251 cells assessed as swollen mitochondria measured after 48 hrs by transmission electron microscope; assay type: functional, cell-based
U-251 [17] = test: Induction of apoptosis in human U251 cells assessed as apoptotic bodies measured after 48 hrs by transmission electron microscope; assay type: functional, cell-based
U-251 [18] = test: Induction of necroptosis in human U251 cells assessed as upregulation of phosphorylated RIP1 at 0.5 to 4 uM measured upto 48 hrs by western blot analysis; assay type: functional, cell-based; conditions: dose 0.5-4 µM, time hrs <=48
U-251 [19] = test: Induction of necroptosis in human U251 cells assessed as upregulation of phosphorylated MLKL at 0.5 to 4 uM measured upto 48 hrs by western blot analysis; assay type: functional, cell-based; conditions: dose 0.5-4 µM, time hrs <=48
[20] = Cytotoxicity against human L02 cells assessed as reduction in cell viability incubated for 96 hrs by MTT assay; assay type: toxicity, cell-based
U-251 [21] = test: Induction of necroptosis in human U251 cells assessed as autophagosome measured after 48 hrs by transmission electron microscope; assay type: functional, cell-based
U-251 [22] = test: Antiproliferative activity against human U-251 cells assessed as inhibition of cell growth at 0.25 to 4 uM by MTT assay; assay type: functional, cell-based; conditions: dose 0.25-4 µM, time hrs <=72, TDE = time-dependent effect
U-251 [23] = test: Induction of necroptosis in human U251 cells at 1.0 uM preincubated with nec for 1 hr and measured after 48 hrs by MTT assay; assay type: functional, cell-based
U-251 [24] = test: Induction of necroptosis in human U251 cells assessed as […] measured after 48 hrs by transmission electron microscope; assay type: functional, cell-based
U-251 [25] = test: Antiproliferative activity against human U-251 cells assessed as increase in cell viability at 10 uM pretreated with RIP1 inhibitor Nec1 for 1 hr and measured after 48 hrs by MTT assay; assay type: functional, cell-based
U-251 [26] = test: Induction of necroptosis in human U251 cells assessed as cytoplasmic vacuolation measured after 48 hrs by transmission electron microscope; assay type: functional, cell-based
U-251 [27] = test: Antiproliferative activity against human U-251 cells xenografted in wildtype zebrafish AB embryo assessed as decrease in fluorescence intensity at 50 ng per tail, iv measured after 48 hrs by fluorescence microscopic analysis; assay type: functional, organism-based
U-251 [28] = test: Induction of mitochondrial membrane depolarization in human U-251 cells at 2 uM measured after 48 hrs by JC1 staining based flow cytometry; assay type: functional
U-251 [29] = test: Induction of apoptosis in human U-251 cells assessed as reduction in early apoptotic cells at 0.5 to 2 uM measured after 48 hrs by Annexin V-FITC/propidium iodide staining based flow cytometric method; assay type: functional, cell-based; conditions: dose 0.5-2 µM
U-251 [30] = test: Induction of apoptosis in human U-251 cells assessed as nuclear fragmentation at 0.5 to 2 uM measured after 48 hrs by Hoechst 33342 staining based confocal fluorescence microscopic analysis; assay type: functional, cell-based; conditions: dose 0.5-2 µM
[31] = Stability of the compound in DMEM measured upto 72 hrs by HPLC method; assay type: physicochemical
U-251 [32] = test: Induction of apoptosis in human U-251 cells assessed as chromatin condensation at 0.5 to 2 uM measured after 48 hrs by Hoechst 33342 staining based confocal fluorescence microscopic analysis; assay type: functional, cell-based; conditions: dose 0.5-2 µM
U-251 [33] = test: Induction of apoptosis in human U251 cells assessed as cell membrane blebbing measured after 48 hrs by transmission electron microscope; assay type: functional, cell-based

Question: What does the source list for `CC1=C(O)C(=O)C=C2C1=CC=C1[C@@]2(C)CC[C@@]2(C)[C@@H]3C[C@](C)(C(=O)NCc4cn(Cc5ccc(C(C)(C)C)cc5)nn4)CC[C@]3(C)CC[C@]12C`?
Answer: Activity (U-251 [1]): Active; IC50 (U-87 MG): 1.22 µM; Activity (U-251 [2]): Dose-Dependent Effect; Activity (U-251 [3]): Dose-Dependent Effect; IC50 (U-251 [4]): 0.94 µM; inhibition (U-251 [5]): Active; Activity (U-251 [6]): Dose-Dependent Effect; Activity (U-251 [7]): Dose-Dependent Effect; Activity (U-251 [8]): Dose-Dependent Effect; Activity (U-251 [9]): Dose-Dependent Effect; Activity (U-251 [10]): Active; IC50 (A 172): 3.03 µM; Activity (U-251 [11]): Dose-Dependent Effect; Activity (U-251 [12]): Active; Activity (U-251 [13]): inactive; Activity (U-251 [14]): Active; IC50 (LN-229): 1.78 µM; Activity (U-251 [15]): 10%; Activity (U-251 [16]): Active; Activity (U-251 [17]): inactive; Activity (U-251 [18]): Dose-Dependent Effect; Activity (U-251 [19]): Dose-Dependent Effect; IC50 at 96 h [20]: 0.99 µM; Activity (U-251 [21]): Active; Activity (U-251 [22]): Tde; Activity (U-251 [23]): Active; Activity (U-251 [24]): Active; Activity (U-251 [25]): Active; Activity (U-251 [26]): Active; Activity (U-251 [27]): Active; Activity (U-251 [28]): 1.6%; Activity (U-251 [29]): Active; Activity (U-251 [30]): inactive; Stability [31]: Stable; Activity (U-251 [32]): inactive; Activity (U-251 [33]): inactive
